In BindingDB's records for patent US9745328 (Janssen Pharmaceutica NV, 2017):

Biological target: T1, Arachidonate 5-lipoxygenase-activating protein (Homo sapiens, UniProt P20292)
T1 sequence (P20292 whole entry): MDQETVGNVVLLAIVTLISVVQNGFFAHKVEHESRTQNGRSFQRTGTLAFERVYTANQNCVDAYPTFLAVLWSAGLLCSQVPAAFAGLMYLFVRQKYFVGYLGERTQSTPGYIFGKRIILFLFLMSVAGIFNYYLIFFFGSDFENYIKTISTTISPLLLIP
Test: Binding Assay
Protocol: The FLAP binding assay is performed in HTRF format (homogeneous time resolved fluorescence). FLAP-containing membranes (1 μg/well final for human) are incubated in the presence of the HTRF ligand. […] The reaction is allowed to proceed for two hours after which the plate is read on an Envision plate reader in HTRF mode. Data are expressed as a HTRF ratio. For human FLAP binding assays, data are analyzed with 3DX Explorer software. […] For analysis, data from multiple runs are averaged and each compound may be tested in 2 to 20 runs. Each run comprises two plates and each plate includes duplicates. Data from each plate is averaged and data are imported into 3DX. The data from multiple runs are aggregated as the average of duplicates of the calculated ratios in order to calculate Ki and IC50 values.

- Ki: 41.1 nM
Compound: Nc1cnc(-c2ccc(-c3ccccc3-c3ccc(N)nn3)cc2F)cn1 [US9745328, Compound 863]
